Where “and” joins values, the source holds several entries; their conditions need not be identical. Equal values may be shown once.
Legend:
CCKAR = CCKAR (Homo sapiens, UniProt P32238); test: PRESTO-Tango β-arrestin recruitment, CCKAR; type: cell-based; settings: 10 µM compound; basal level of detection 3-fold RLU
[1] = system: osteoblast markers Alp, Col1a1, Osteocalcin, Runx2; test: Quantitative RT-PCR of osteoblast markers in tibia after 8-week oral treatment; type: in vivo, mouse; settings: normalized to control group, 10 mg/kg PO, 8 weeks, individual mice
[2] = system: female gubernaculum (mouse RXFP2 receptor in vivo); test: Gubernaculum development in female embryos of treated pregnant mice (histology); settings: 30 mg/kg IP to pregnant females, E12.5 to E17.5
Procedure: The INSL3 surge that drives gubernaculum development during the transabdominal stage of testicular descent in male mice occurs between embryonic day E14.5 and 17.5[5],[6],[41]. In females, there is no detectable INSL3 expression and therefore the gubernaculum remains underdeveloped as a vestigial structure. […] Therefore, we hypothesized that the small molecule agonists of RXFP2 would show similar effects in female mice. Compound activity was tested by injecting pregnant females with the RXFP2 agonists starting from day E12.5 to E17.5 of embryonic development followed by histological evaluation of the gubernaculum in developing female embryos. […] At E18.5 the processus vaginalis or outpouching of the peritoneum occurs in males at the site of gubernacular caudal connection[43] (Fig. 3a). […] No differences were detected in the position of the ovaries in compound-treated female embryos and controls.
Fig. 3 RXFP2 agonists are biologically active and selective in vivo. a Diagram of the treatment protocol and representative histological section of the developed male gubernaculum at embryonic day 18.5 (upper left). b Representative histological sections showing a male-like invagination of the female gubernaculum in all compound-treated embryos (blue arrows). Four female embryos were analyzed per group. Scale bar = 100 µm. […]

RXFP2 = RXFP2 (Homo sapiens, UniProt Q8WXD0); test: Confirmatory CRE-luciferase reporter assay in HEK-CRE-Luc-RXFP2 cells; type: cell-based; set-up: FLAG (N); expressed in transfected cells; settings: for % Eff (CRE-luciferase): experiments (1)-(3)
RXFP2, sequence (Q8WXD0 whole entry): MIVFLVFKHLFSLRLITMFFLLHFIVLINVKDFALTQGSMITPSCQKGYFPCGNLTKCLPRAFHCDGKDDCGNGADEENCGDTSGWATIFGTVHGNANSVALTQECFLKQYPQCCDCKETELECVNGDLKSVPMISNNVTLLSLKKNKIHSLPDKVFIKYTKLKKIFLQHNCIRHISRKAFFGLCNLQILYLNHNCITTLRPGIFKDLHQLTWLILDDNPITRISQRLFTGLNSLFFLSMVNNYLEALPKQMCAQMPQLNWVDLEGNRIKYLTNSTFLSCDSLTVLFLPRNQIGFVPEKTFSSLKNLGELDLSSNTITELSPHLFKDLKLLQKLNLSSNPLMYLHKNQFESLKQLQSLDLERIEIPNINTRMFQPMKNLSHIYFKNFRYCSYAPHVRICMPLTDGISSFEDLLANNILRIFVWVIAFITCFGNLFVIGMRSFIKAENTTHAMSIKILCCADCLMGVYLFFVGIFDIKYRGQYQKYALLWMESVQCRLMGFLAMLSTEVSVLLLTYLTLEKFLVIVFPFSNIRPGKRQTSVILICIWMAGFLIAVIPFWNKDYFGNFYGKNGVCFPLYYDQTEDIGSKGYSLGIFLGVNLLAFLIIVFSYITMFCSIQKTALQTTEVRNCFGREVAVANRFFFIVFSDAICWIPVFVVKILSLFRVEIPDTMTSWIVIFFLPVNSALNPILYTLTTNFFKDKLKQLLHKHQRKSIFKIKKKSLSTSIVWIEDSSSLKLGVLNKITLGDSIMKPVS
Procedure: A quantitative high-throughput screening (HTS) of more than 80 K compounds of the NCATS/NIH diversity collection was performed at four concentrations in HEK293T cells stably expressing human RXFP2 to identify candidate agonists. A homogenous time resolved fluorescence (HTRF) assay was used to directly detect compound-induced cAMP accumulation, with forskolin or human recombinant INSL3 serving as positive controls. […] Selected compounds with reasonable activity in dose response were also tested in a confirmatory orthogonal screening using a cAMP response element (CRE) driven luciferase reporter assay in HEK-CRE-Luc-RXFP2 cells, and in a counter-screen with cells transfected with human relaxin/insulin-like family peptide receptor 1 (RXFP1). Finally, we performed an extensive structure activity relationship campaign (SAR) to increase both the agonist efficacy and potency of the lead series. […] A confirmatory CRE-luciferase cAMP screen was used to eliminate any potential false positives due to assay detection artifacts (Supplementary Fig. 1a).
HEK293T-CRE-Luc cells express luciferase under the control of the cAMP response element (CRE), which allows for indirect measurement of intracellular cAMP accumulation. HEK293T-CRE-Luc cells were stably transfected with human RXFP2 (HEK-CRE-Luc-RXFP2) or transiently transfected as above with mouse Rxfp2 (HEK-CRE-Luc-Rxfp2). HEK-CRE-Luc-RXFP2 and HEK-CRE-Luc-Rxfp2 cells were seeded at 15,000 and 30,000 cells per well, respectively, in 96-well plates using serum-free DMEM medium and incubated overnight at 37 °C, 5% CO2. After 18 h, cells were treated with a titration of compound, a titration of INSL3, 5 μM forskolin or DMSO vehicle. After treatment, cells were incubated for 3 h at 37 °C, 5% CO2. Plates were then allowed to equilibrate for 30 min at room temperature and an equal volume of substrate (Amplite Luciferase Reporter Gene Assay Kit, AAT Bioquest, Sunnyvale, CA) was added to each well. Plates were incubated for 40 min at room temperature protected from light and the luciferase output was read on a CLARIOstar plate reader.
Supplementary Fig. 1: Compounds activate both human and mouse RXFP2 receptors. a Confirmatory CRE-Luciferase screening of RXFP2 agonists in st a b ly transfected HEK-CRE-Luc-RXFP2 cells. b Activation of mouse RXFP2 receptor by the compounds in transiently transfected HEK293T-CRE-Luc cells. Compound response was normalized to 100 nM INSL3 as 100% efficacy and DMSO vehicle as 0% efficacy.
Results are expressed as mean ± SEM of 3 independent experim ents.
(1 picture or pasted object on this page, not shown here)

[3] = system: human aortic vascular smooth muscle cells (HAVSMC); test: CellTiter-Glo cytotoxicity assay in HAVSMC cells; type: cell-based; settings: experiments (1)-(3)
From the text: Fig. 4 RXFP2 agonists induce mineralization of primary human osteoblasts and are non-cytotoxic. a Mineral hydroxyapatite fluorescent quantification after 14-day treatment in HCO cells. Results were normalized to control DMSO as 100% mineralization. b HCO and c HAVSMC toxicity after 24-h treatment with RXFP2 agonists, normalized to DMSO treatment as 0% toxicity. Results are expressed as mean ± SEM of 3 independent experiments. *p < 0.05, *** p < 0.001 vs. DMSO using One-way ANOVA.
Cell viability studies were undertaken to identify potential cytotoxic effects of the RXFP2 agonists. HCO cells and human aortic vascular smooth muscle cells (HAVSMC) were treated for 24 h. […] At 8.3 µM and below, no toxicity was found in HCO cells and toxicity was below 20% in HAVSMC cells for all three compounds (Fig. 4b, c).
The ATP CellTiter-Glo Luminescent Cell Viability Assay (Promega, Madison, WI) was used to measure cytotoxicity induced by the compounds in HCO cells and human aortic vascular smooth muscle cells (HAVSMC) (ATCC, Manassas, VA). HCO and HAVSMC cells were seeded in 96-well plates at 3000 and 7000 cells per well respectively. Cells were incubated overnight, treated with compound or DMSO vehicle and incubated for 24 h at 37 °C, 5% CO2. […] Plates were shaken for 2 min, incubated at room temperature for 10 min and the luminescent signal was read on a CLARIOstar plate reader.

CCKAR, sequence (P32238 whole entry): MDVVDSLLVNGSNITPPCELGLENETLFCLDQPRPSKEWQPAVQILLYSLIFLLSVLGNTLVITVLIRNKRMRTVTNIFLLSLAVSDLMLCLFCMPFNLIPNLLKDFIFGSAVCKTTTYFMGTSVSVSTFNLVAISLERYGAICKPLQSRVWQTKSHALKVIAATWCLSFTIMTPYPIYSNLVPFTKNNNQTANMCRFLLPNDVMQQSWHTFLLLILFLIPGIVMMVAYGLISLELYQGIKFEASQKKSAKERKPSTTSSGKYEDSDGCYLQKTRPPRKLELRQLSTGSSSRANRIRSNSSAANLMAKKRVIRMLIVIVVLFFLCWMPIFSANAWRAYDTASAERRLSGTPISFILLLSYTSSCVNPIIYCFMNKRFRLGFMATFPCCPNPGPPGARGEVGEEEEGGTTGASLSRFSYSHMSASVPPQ

O=C1Nc2ccc(-c3cc(C(F)(F)F)cc(C(F)(F)F)c3)cc2C(=O)N2CCN(C(=O)COc3ccc(OC(F)(F)F)cc3I)C[C@@H]12 [compound 6641]
β-arrestin recruitment, CCKAR (mean ± SEM) (CCKAR): 3.42 ± 0.15 fold RLU | Alp gene expression [1]: No significant differences and 0.88 and 1.46 and 1.09 and 1.63 and 1.11 and 1.2 and 1.13 and 0.7 and 1.17 and 0.71 and 0.82 and 1.61 and 1.28 and 1.02 | Col1a1 gene expression [1]: No significant differences and 1.04 and 1.44 and 0.9 and 1.62 and 0.96 and 1.32 and 0.82 and 1.12 and 1.24 and 0.81 and 0.88 and 1.29 and 0.93 | Osteocalcin gene expression [1]: significant increase and 1.47 and 0.79 and 1.35 and 1.31 and 2.35 and 1.34 and 2.19 and 1.5 and 2.42 and 1.3 and 1.4 and 1.23 and 2.1 and 1.83 and 1.39 | Runx2 gene expression [1]: decrease and 0.41 and 0.71 and 0.95 and 0.75 and 1.16 and 0.6 and 0.57 and 0.72 and 0.73 and 0.89 and 0.83 and 1.42 and 1.07 and 0.66 | gubernaculum phenotype of female embryos at E18.5 [2]: male-like invagination of the gubernaculum | agonism of human RXFP2 in CRE-luciferase reporter assay (RXFP2; HEK-CRE-Luc-RXFP2): full agonist | % Eff (CRE-luciferase) (RXFP2; Log [M] -4.60, 100 nM INSL3 = 100%, DMSO = 0%): 112.29% and 97.22% and 133.29% | % Eff (CRE-luciferase) (RXFP2; Log [M] -5.00): 116.16% and 119.1% and 157.5% | % Eff (CRE-luciferase) (RXFP2; Log [M] -5.78): 114.59% and 98.52% and 126.86% | % Eff (CRE-luciferase) (RXFP2; Log [M] -6.56): 113.18% and 86.94% and 103.38% | % Eff (CRE-luciferase) (RXFP2; Log [M] -7.33): 77.02% and 61.6% and 70.55% | % Eff (CRE-luciferase) (RXFP2; Log [M] -8.11): 44.24% and 30.05% and 30.02% | % Eff (CRE-luciferase) (RXFP2; Log [M] -8.89): 14.74% and 8.06% and 7.85% | % Eff (CRE-luciferase) (RXFP2; Log [M] -9.67): 6.98% and 1.71% and 0.6% | % Tox ([3]; Log [M] -5.08, 24 h): 15.51% and 24.11% and 15.33% | % Tox ([3]; Log [M] -5.56, 24 h): 15.84% and 5.85%

From publication PMC9636434, “Discovery of small molecule agonists of the Relaxin Family Peptide Receptor 2” (Communications Biology, 2022)
